What was measured:
[1] = target: T1, neutrophil collagenase (MMP-8) (Homo sapiens, UniProt P22894); assay: Enzymatic activity of the catalytic domain of neutrophil collagenase (MMP-8), fluorogenic substrate; format: biochemical
T1 construct: Catalytic Domain of Human Stromelysin (MMP-3) and of Neutrophil Collagenase (MMP-8); made in house
Protocol: Preparation and Determination of the Enzymatic Activity of the Catalytic Domain of Human Stromelysin (MMP-3) and of Neutrophil Collagenase (MMP-8)
The two enzymes stromelysin (MMP-3) and neutrophil collagenase (MMP-8) were prepared by the method of Ye et al. (Biochemistry; 31 (1992) pages 11 231-11 235). The enzymic activity or the effect of the enzyme inhibitor was measured by incubating 10 μl of enzyme solution with 10 μl of a 3% strength (v/v) buffered dimethyl sulfoxide solution which contained the enzyme inhibitor where appropriate, for 15 minutes. After addition of 10 μl of a 3% strength (v/v) aqueous dimethyl sulfoxide solution which contained 1 mmol/l of the substrate, the enzymic reaction was followed by fluorescence spectroscopy (328 nm (ex)/393 nm(em)). The enzymic activity is presented as increase in extinction/minute.
The IC50 values listed in Table 4 were determined as the inhibitor concentrations leading in each case to 50% inhibition of the enzyme. The buffer solution contained 0.05% Brij (Sigma, Deisenhofen, Germany) and 0.1 mol/l Tris/HCl, 0.1 mol/l NaCl, 0.01 mol/l CaCl2 and 0.1 mol/l piperazine-N,N′-bis[2-ethanesulfonic acid] (pH=7.5).
The MMP-3 enzyme solution contained 2.3 μg/ml and the MMP-8 enzyme solution 0.6 μg/ml of one of the enzyme domains prepared by the method of Ye et al. The substrate solution contained 1 mmol/l of the fluorogenic substrate (7-methoxycoumarin-4-yl)acetyl-Pro-Leu-Gly-Leu-3-(2′,4′-dinitrophenyl)-L-2,3-diaminopropionyl-Ala-Arg-NH2 (Bachem, Heidelberg, Germany).

[2] = target: T2, catalytic domain of human gelatinase-A (MMP-2) (Homo sapiens, UniProt P08253); assay: Enzymatic activity of the catalytic domain of human gelatinase-A (MMP-2), fluorogenic substrate; format: biochemical
T2 construct: Determination of the Enzymatic Activity of the Catalytic Domain of Human Gelatinase-A (MMP-2); purchased INVITEK, Berlin
T2 sequence (P08253 110-660): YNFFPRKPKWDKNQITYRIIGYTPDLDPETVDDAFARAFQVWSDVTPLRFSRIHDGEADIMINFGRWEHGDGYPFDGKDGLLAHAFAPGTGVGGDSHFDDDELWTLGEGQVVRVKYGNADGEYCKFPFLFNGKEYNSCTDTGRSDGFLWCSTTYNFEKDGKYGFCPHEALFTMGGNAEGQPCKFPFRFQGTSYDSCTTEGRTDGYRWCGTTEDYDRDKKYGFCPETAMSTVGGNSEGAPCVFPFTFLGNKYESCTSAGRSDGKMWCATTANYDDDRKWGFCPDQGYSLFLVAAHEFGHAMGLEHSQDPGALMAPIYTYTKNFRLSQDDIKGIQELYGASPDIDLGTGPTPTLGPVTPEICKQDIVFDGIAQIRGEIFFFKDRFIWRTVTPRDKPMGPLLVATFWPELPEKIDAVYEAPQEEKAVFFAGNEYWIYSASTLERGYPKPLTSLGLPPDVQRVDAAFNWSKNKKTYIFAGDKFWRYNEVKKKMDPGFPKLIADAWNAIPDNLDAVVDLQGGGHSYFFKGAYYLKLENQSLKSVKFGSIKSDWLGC
Protocol: Determination of the Enzymatic Activity of the Catalytic Domain of Human Gelatinase-A (MMP-2)
Activation of the proenzyme: 2 parts by volume of proenzyme were incubated with 1 part by volume of APMA solution at 37° C. for 0.5 hours. The APMA solution was prepared from a 10 mmol/l p-aminophenylmercuric acetate solution in 0.1 mmol/l NaOH by dilution with 3 parts by volume of Tris/HCl buffer pH 7.5 (see below). The pH was adjusted to between 7.0 and 7.5 by adding 1 mmol/l HCl. After activation of the enzyme it was diluted with the Tris/HCl buffer to a concentration of 0.83 μg/ml.
The enzymic activity was measured by incubating 10 μl of enzyme solution with 10 μl of a 3% strength (v/v) buffered dimethyl sulfoxide solution (reaction 1) for 15 minutes. The enzyme inhibitor activity was measured by incubating 10 μl of enzyme solution with 10 μl of a 3% strength (v/v) buffered dimethyl sulfoxide solution which contained the enzyme inhibitor (reaction 2).
The enzymic reaction both in the case of reaction 1 and in the case of reaction 2 was followed after addition of 10 μl of a 3% strength (v/v) aqueous dimethyl sulfoxide solution which contained 0.3 mmol/l of the substrate by fluorescence spectroscopy (328 nm (extinction)/393 nm (emission)).
The enzymic activity has been presented as increase in extinction/minute.
The effect of the inhibitor was calculated as percentage inhibition by the following formula: % inhibition=100−[(increase in extinction/minute in reaction 2)/(increase in extinction/minute in reaction 1)×100].
The IC50, which is the concentration of inhibitor which is necessary for 50% inhibition of the enzymic activity, was determined graphically by plotting the percentage inhibitions at various inhibitor concentrations.
The buffer solution contained 0.05% Brij (Sigma, Deisenhofen, Germany) and 0.1 mol/l Tris/HCl, 0.1 mol/l NaCl, 0.01 mol/l CaCl2 (pH=7.5). The enzyme solution contained […] of the enzyme domain. The substrate solution contained 0.3 mmol/l of the fluorogenic substrate (7-methoxycoumarin-4-yl)acetyl-Pro-Leu-Gly-Leu-3-(2′,4′-dinitrophenyl)-L-2,3-diaminopropionyl-Ala-Arg-NH2 (Bachem, Heidelberg, Germany).

T1 sequence (P22894 100-262 limits assumed): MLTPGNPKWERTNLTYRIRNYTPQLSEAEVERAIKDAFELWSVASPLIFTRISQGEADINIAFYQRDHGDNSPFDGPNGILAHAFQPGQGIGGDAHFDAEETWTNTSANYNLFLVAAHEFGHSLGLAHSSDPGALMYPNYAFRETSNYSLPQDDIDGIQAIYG

IC50 [1] [nM] | IC50 [2] [nM] | Molecule
14 | 4.5 | COc1ccc(F)c2c1[C@H](C(=O)NO)N(S(=O)(=O)c1ccc(-c3ccc(Cl)cc3)cc1)CC2 [Compound 18]
2 | 1 | COc1cc2c(cc1OC)[C@@H](C(=O)NO)N(S(=O)(=O)c1ccc(-c3ccc(Cl)cc3)cc1)CC2 [Compound 15]
3 | 2.3 | O=C(NO)[C@H]1c2ccccc2CCN1S(=O)(=O)c1ccc(Oc2ccncc2)cc1 [Compound 11]
3.2 | 2.2 | O=C(NO)[C@H]1c2ccccc2CCN1S(=O)(=O)c1ccc(Oc2ccc(C(F)(F)F)cc2)cc1 [Compound 21, (R)-2-[4-(4-trifluoromethylphenoxy)benzenesulfonyl]-1,2,3,4-tetrahydro-isoquinoline-1-hydroxycarboxamide]
30 | 23 | O=C(NO)[C@H]1c2ccccc2CCN1S(=O)(=O)c1ccc(Oc2ccc(OC(F)(F)F)cc2)nc1 [Compound 43, (R)-2-[6-(4-trifluoromethoxyphenoxy)pyridine-3-sulfonyl]-1,2,3,4-tetrahydro-isoquinoline-1-hydroxycarboxamide]
2.2 | 2 | O=C(NO)[C@H]1c2ccccc2CCN1S(=O)(=O)c1ccc(Oc2ccc(Cl)cc2)cc1 [Compound 9]
2.2 | 2 | 2-{2-[4-(4-fluorophenoxy)phenyl]ethanesulfonyl}-1,2,3,4-tetrahydroisoquinoline-1-hydroxycarboxamide [Compound 20]
110 | 25 | O=C(NO)[C@H]1c2ccccc2CCN1S(=O)(=O)c1ccc(Oc2ccc(OCC(F)(F)F)cc2)cc1 [Compound 22]
4 | 2 | (R)-4-(1-hydroxycarbamoyl-3,4-dihydro-1H-isoquinoline-2-sulfonyl)phenyl benzoate [Compound 48]

Molecule | IC50 [1] [nM] | IC50 [2] [nM]
O=C(NO)[C@H]1c2ccccc2CCN1S(=O)(=O)c1ccc(Oc2ccc(Cl)cc2)nc1 [Compound 45, (R)-2-[6-(4-chlorophenoxy)pyridine-3-sulfonyl]-1,2,3,4-tetrahydroisoquinoline-1-hydroxycarboxamide] | 9 | 2

— US20070203118A1, “SUBSTITUTED TETRAHYDROISOQUINOLINES USED IN THE FORM OF MMP INHIBITORS, METHOD FOR THE PRODUCTION AND USE THEREOF IN THE FORM OF DRUGS” (SANOFI-AVENTIS DEUTSCHLAND GMBH, priority 2004, published 2007)
